Assay results from ChEMBL document CHEMBL4513101, “Naegleria gruberi Pathogen Box compounds screening” (2021).
Active and inactive are the calls of the source. No stated cut-off is given here; in the data, active = inhibition of 80% or more and inactive = less.

System: Naegleria gruberi
Assay: microbe, parasite or virus in culture
Assay type: functional
Conditions: NEG-M, CONC 10 uM
Description: Growth inhibiting activity of Naegleria gruberi in vitro

CC(C)(C)c1cc(C(=O)N2CCN(c3nccnc3C#N)CC2)n(Cc2ccccc2)n1
inhibition at 10 µM: 31.6% (not active)

Cc1nc(-c2cccc(NCc3ccccc3)c2)[nH]c1C
inhibition at 10 µM: 8.1% (not active)

Nc1ccc(C(=O)Nc2ccc(-c3nc4ccccc4o3)cc2)cc1
inhibition at 10 µM: 6.1% (not active)

CN(C(=O)c1cc2c(-c3cncnc3)cccc2[nH]1)c1ccccc1
inhibition at 10 µM: 27.7% (not active)

Cc1ccc(Oc2ccc(NC(=O)CNc3ccccc3N3CCCC3=O)cc2)cc1
inhibition at 10 µM: 18.8% (not active)

CNC1C(OC2C(OC3C(O)C(O)C(N=C(N)N)C(O)C3N=C(N)N)OC(C)C2(O)C=O)OC(CO)C(O)C1O (stereo not drawn)
inhibition at 10 µM: 0% (not active)

Cc1cc(C(=O)Nc2cnn(Cc3ccc(Cl)cc3Cl)c2)no1
inhibition at 10 µM: 65% (not active)

FC(F)(F)c1cc(NCCc2ccccc2)nc(-c2ccccn2)n1
inhibition at 10 µM: 24.6% (not active)

Clc1ccc(CN2CCN(C3=NCCN3)CC2)cc1Cl
inhibition at 10 µM: 23.3% (not active)

Cc1nc(-c2ccccn2)nc(N2CCC(Cc3ccccc3)C2)c1Cl (stereo not drawn)
inhibition at 10 µM: 38.3% (not active)

COc1cc(C(F)(F)F)nc2ccc(C)c(N)c12
inhibition at 10 µM: 2.1% (not active)

CCCS(=O)(=O)N1CCC(CO)(Cc2ccccc2C(F)(F)F)CC1
inhibition at 10 µM: 19% (not active)

CCNC(=O)C(C)Nc1nc(-c2cccnc2)nc2sc(C)c(C)c12 (stereo not drawn)
inhibition at 10 µM: 12.2% (not active)

O=[N+]([O-])c1cn2c(n1)OC[C@@H](OCc1ccc(OC(F)(F)F)cc1)C2 [PRETOMANID]
inhibition at 10 µM: 16.1% (not active)

O=C(CCC1CCCCC1)Nc1cccc(-c2nnc(-c3ccco3)o2)c1
inhibition at 10 µM: 30% (not active)

CNCCC(Oc1ccc(C(F)(F)F)cc1)c1ccccc1 (stereo not drawn) [FLUOXETINE]
inhibition at 10 µM: 7.5% (not active)

COc1nc2ccc(Br)cc2cc1[C@@H](c1ccccc1)[C@@](O)(CCN(C)C)c1cccc2ccccc12 [BEDAQUILINE]
inhibition at 10 µM: 56.3% (not active)

O=C(NCc1ccco1)N1CCN(Cc2ccc(Cl)s2)CC1
inhibition at 10 µM: 39.6% (not active)

CN1CCN(S(=O)(=O)c2ccc(-c3ccc4c(Nc5ccc6nn[nH]c6c5)ccnc4c3)cc2)CC1
inhibition at 10 µM: 10.8% (not active)

NCCC(O)C(=O)N[C@@H]1C[C@H](N)[C@@H](OC2O[C@H](CN)[C@@H](O)[C@H](O)[C@H]2O)[C@H](O)C1OC1O[C@H](CO)[C@@H](O)[C@H](N)[C@H]1O (stereo partly drawn)
inhibition at 10 µM: 0% (not active)

CC1(C)Cc2c(c(N3CCOCC3)nc3snc(Br)c23)CO1
inhibition at 10 µM: 0% (not active)

NC(CC(=O)c1ccc(Cl)cc1Cl)C(Cl)(Cl)Cl (stereo not drawn)
inhibition at 10 µM: 11.7% (not active)

O=C(C1CCN(c2nnnn2-c2ccccc2)CC1)N1CCc2ccccc2C1
inhibition at 10 µM: 25.8% (not active)

COc1ccc(C(=N)N)cc1-c1cn(-c2ccc(C(=N)N)cc2)nn1
inhibition at 10 µM: 22.8% (not active)

Nc1ncnc2c1c(Cc1cccc3ccccc13)nn2CC1CCNCC1
inhibition at 10 µM: 11.4% (not active)

CC(c1cc(Cl)cc(Cl)c1)N(C)c1ncc2c(N)nc(N)nc2n1 (stereo not drawn)
inhibition at 10 µM: 11% (not active)

CS(=O)(=O)N1CCC(CCn2nc(Cc3cccc4ccccc34)c3c(N)ncnc32)CC1
inhibition at 10 µM: 26.2% (not active)

Cc1ccc2cc(C3NC(=O)c4ccccc4N3)c(Cl)nc2c1 (stereo not drawn)
inhibition at 10 µM: 46.1% (not active)

CO/N=C(\C(=O)OC)c1ccccc1CO/N=C(\C)c1cccc(C(F)(F)F)c1
inhibition at 10 µM: 43.9% (not active)

COc1cccc(-n2nnnc2S(C)(=O)=O)c1
inhibition at 10 µM: 78.8% (not active)

O=C(Nc1cccc(-c2ccc(NCCCN3CCCC3)nc2)c1)c1ccccc1
inhibition at 10 µM: 8.2% (not active)

C[C@]1(O)C[C@@H](c2nc(-c3ccc4ccc(-c5ccccc5)nc4c3)c3c(N)nccn32)C1 [LINSITINIB]
inhibition at 10 µM: 59.4% (not active)

COc1cc2ncnc(NC3CCN(Cc4ccccc4)CC3)c2cc1OC
inhibition at 10 µM: 13.6% (not active)

OCc1ccc(-c2cncc(Nc3cccc(Cl)c3)c2)cc1
inhibition at 10 µM: 18.8% (not active)

N#Cc1nc(-c2ccccc2F)oc1NCCc1ccccc1
inhibition at 10 µM: 4.7% (not active)

Cc1nn(C)c(C)c1NS(=O)(=O)c1c(Cl)cc(-c2ccnc(N3CCNCC3)c2)cc1Cl
inhibition at 10 µM: 58.2% (not active)

COc1cccc(OC)c1C(=O)Nc1ccc(Cl)c(-c2nc3ccccc3s2)c1
inhibition at 10 µM: 19.2% (not active)

CCOc1ccccc1C(=O)Nc1cccc(-c2nc3ncccn3c2C)c1
inhibition at 10 µM: 34.5% (not active)

Cc1cc(C)nc(-n2nc(C)cc2Nc2ccccc2)n1
inhibition at 10 µM: 31.5% (not active)

COc1ccc(Cn2cnc3c(-c4ccco4)nc(Cl)nc32)cc1
inhibition at 10 µM: 36.9% (not active)

CN1CCCN(C(c2ccccc2)c2ccc(Cl)cc2)CC1 (stereo not drawn) [HOMOCHLORCYCLIZINE]
inhibition at 10 µM: 11.6% (not active)

COc1ccc(-c2cnc3ccc(NCc4ccc(S(N)(=O)=O)cc4)nn23)cn1
inhibition at 10 µM: 10.2% (not active)

CC(=O)Nc1ccc(NC(=O)c2cc(-c3cc(Cl)ccc3O)n[nH]2)cc1
inhibition at 10 µM: 8.8% (not active)

O=C(Nc1c(O)cccc1-c1nc2c(C(=O)O)cccc2o1)c1cc(-c2ccccc2)on1
inhibition at 10 µM: 18.4% (not active)

CCOC(=O)c1cc(-c2csc(Nc3c(C)cc(C)cc3C)n2)on1
inhibition at 10 µM: 33.4% (not active)

CC(C)c1ncc(-c2ccncc2)c([C@H]2CC[C@H](CNC(=O)c3cccnc3)CC2)n1
inhibition at 10 µM: 32.5% (not active)

Cc1cc(OCC(=O)NCc2ccccc2)c2cc(Br)ccc2n1
inhibition at 10 µM: 22.1% (not active)

NCCCC(N)(C(=O)O)C(F)F (stereo not drawn) [EFLORNITHINE]
inhibition at 10 µM: 33.6% (not active)

Nc1ncc(-c2ccc(C(F)(F)F)nc2)cc1-c1ccc(C(F)(F)F)nc1
inhibition at 10 µM: 16.5% (not active)

CNC(=O)CNc1nc(-c2ccccn2)nc2scc(-c3ccccc3)c12
inhibition at 10 µM: 22.6% (not active)

CC(Oc1ccccc1)C(=O)Nc1nc(-c2ccccn2)cs1 (stereo not drawn)
inhibition at 10 µM: 32.3% (not active)

O=C(CN1CCOCC1)Nc1ccc2ncnc(Nc3ccc(OCc4cccc(F)c4)c(Cl)c3)c2c1
inhibition at 10 µM: 17% (not active)

N#CCN(CCCCN1CCN(c2ccc(F)cc2)CC1)C(=O)OCc1ccccc1
inhibition at 10 µM: 21.3% (not active)

c1cncc(NCc2ccc(-c3cc4ccncc4cc3OC3CCNCC3)s2)c1
inhibition at 10 µM: 19.4% (not active)

NCCN(C(=O)c1ccc(Cl)cc1Cl)c1ccc(OCc2ccc(Cl)cc2)cc1
inhibition at 10 µM: 29.6% (not active)

Cc1cc(C2=NOC(c3cc(Cl)c(F)c(Cl)c3)(C(F)(F)F)C2)ccc1C(=O)NCc1ccc2c(c1)C(C)(C)OB2O (stereo not drawn)
inhibition at 10 µM: 47.6% (not active)

COc1ccc(Cl)cc1NC(=O)CN(C)C(=O)c1cnn(-c2ccccc2)n1
inhibition at 10 µM: 37.1% (not active)

COc1cc(NC(=O)Cc2nn(C)c(=O)c3ccccc23)ccc1Cl
inhibition at 10 µM: 90.7% (active)

Cc1ccc2c(c1C)NC(=O)C21NN=C(c2ccccc2)S1 (stereo not drawn)
inhibition at 10 µM: 20.7% (not active)

O=C(Nc1ccc(C(F)(F)F)c(C(F)(F)F)c1)c1cc(Cl)ccc1O
inhibition at 10 µM: 98.5% (active)

CC1CCCCN1C(=O)NCCc1coc(-c2ccc(F)cc2)n1 (stereo not drawn)
inhibition at 10 µM: 42.6% (not active)

O=C(NCCN1CCCC1)c1cc(NCCCCN2CCC(F)(F)CC2)nc2ccc(Cl)cc12
inhibition at 10 µM: 4.3% (not active)

COc1ccc2nc(C)cc(OCC(=O)Nc3ccccc3OC)c2c1
inhibition at 10 µM: 34.9% (not active)

CC1COC(Cn2cncn2)(c2ccc(Oc3ccc(Cl)cc3)cc2Cl)O1 (stereo not drawn) [DIFENOCONAZOLE]
inhibition at 10 µM: 73.3% (not active)

O=C(NCCc1c[nH]c2ccccc12)c1cc2ccccc2oc1=O
inhibition at 10 µM: 33.7% (not active)

COc1cccc(NC(=O)c2c(NC(=O)c3cccnc3)sc3c2CCC3)c1
inhibition at 10 µM: 62.6% (not active)

CCOc1ccc2cc(-c3nn(CC4CCN(C)CC4)c4ncnc(N)c34)ccc2c1
inhibition at 10 µM: 28% (not active)

Nc1ncnc2c1c(-c1cnc3ccccc3c1)nn2CC1CCNCC1
inhibition at 10 µM: 4.9% (not active)

Cc1cccc(C(=O)Nc2ccnc(N(C)C3CCN(CC(C)C)CC3)c2)c1
inhibition at 10 µM: 35.1% (not active)

CO[C@@H](C(=O)N1Cc2[nH]nc(NC(=O)c3ccc(N4CCN(C)CC4)cc3)c2C1)c1ccccc1 [DANUSERTIB]
inhibition at 10 µM: 41.3% (not active)

Cc1ccc(NC(=O)CC2COc3ccccc3O2)cc1Cl (stereo not drawn)
inhibition at 10 µM: 79.9% (not active)

NC(=O)c1cc(-c2ccsc2)ccc1OCCOc1ccccc1
inhibition at 10 µM: 43.7% (not active)

CCn1ncc2c(NC3CCOCC3)c(CNC(=O)c3ccnn3C)c(C)nc21
inhibition at 10 µM: 0.8% (not active)

COc1ccccc1CNC(=O)c1cc(C2CC2)nc2c1cnn2C(C)C
inhibition at 10 µM: 49.8% (not active)

Cc1cc(Nc2ccc(C(F)(F)F)cc2)n2ccnc2n1
inhibition at 10 µM: 0% (not active)

CCN(CC)C(=O)N1CCN(C)CC1 [DIETHYLCARBAMAZINE]
inhibition at 10 µM: 19% (not active)

CO[C@@H]1CN(c2ccc(C#CC3(O)CN4CCC3CC4)c(Cc3ccccc3)n2)C[C@H]1O (stereo partly drawn)
inhibition at 10 µM: 0% (not active)

Cc1ccccc1C(=O)N1N=C(Nc2ccccc2)SC1(C)C
inhibition at 10 µM: 12.6% (not active)

CNC(=O)c1cc(S(=O)(=O)N2CCN(c3ccccn3)CC2)cs1
inhibition at 10 µM: 32.9% (not active)

O=C(NCCc1ccccc1)c1cc(-c2cccnc2)cnc1NCC1CC1
inhibition at 10 µM: 37.7% (not active)

C[C@H](C(N)=O)N1CCCC[C@H]1c1ccc(OCc2cccc(F)c2)cc1
inhibition at 10 µM: 15.8% (not active)

Cc1cc(C)cc(COc2ccc3c(C)c(CCC(=O)O)c(=O)oc3c2C)c1
inhibition at 10 µM: 40.9% (not active)

CC(=O)Oc1ccccc1C(=O)Nc1ncc([N+](=O)[O-])s1 [NITAZOXANIDE]
inhibition at 10 µM: 62.7% (not active)

c1ccc(C[C@@H]2CN(c3nccc(Oc4ccc(-n5ccnc5)cc4)n3)CCN2)cc1
inhibition at 10 µM: 26.4% (not active)

NS(=O)(=O)c1cncc(-c2ccc3nccc(-c4cn[nH]c4)c3n2)c1
inhibition at 10 µM: 0% (not active)

COC(=O)c1ccc(F)cc1NS(=O)(=O)c1cccc(-c2cnn(Cc3ccccc3)c2)c1
inhibition at 10 µM: 26.2% (not active)

CC(=O)NC[C@@H]1CN(c2ccc(N3CCOCC3)c(F)c2)C(=O)O1
inhibition at 10 µM: 20.1% (not active)

COc1cc(C2=NCCN2)ccc1-c1cn(-c2cccc(C3=NCCN3)c2)nn1
inhibition at 10 µM: 20.1% (not active)
